Results: PMC8058733, “A pain killer without analgesic tolerance designed by co-targeting PSD-95-nNOS interaction and α2-containning GABAARs” (Theranostics, 2021)

Assays:
α1β2γ2 GABAARs = molecular target: T1, α1β2γ2 GABAARs (Homo sapiens, UniProt P14867+P18507+P47870); assay: Potentiation of GABA-evoked currents, whole-cell patch-clamp in HEK293 cells transiently expressing recombinant GABAARs; format: cell-based; conditions: α1β2γ2
T1 construct: Shanghai Genechem Co.,Ltd (γ2 plasmid); host or cells: HEK293
Experimental: (§1) The affinities of drugs for α1, α2, α3 and α5 subunits were studied in the HEK293 cells (from FuHeng Biology, Shanghai, China) transiently expressing recombinant GABAARs (α1β2γ2, α2β3γ2, α3β3γ2 and α5β2γ2) as described previously. Briefly, the HEK293 cells were cultured in MEM medium supplemented with 10% FBS (fetal bovine serum, Gibico), 1% L-glutamine (Gibco) and 1% mycillin (Gibco). Before transfection, the cells were subcultured onto a 3.5cm dish at the ratio of 1:2. Then, the plasmids of α1/α2/α3/α5 (Origene), β2/β3 (Origene) and γ2 (Shanghai Genechem Co.,Ltd ) (5μg total DNA, ratio 1:1:2) were transfected using Fugene®HD transfection reagent (Promega). The γ2 subunit contained GFP from IRES (internal ribosomal entry site) and was used as a marker of the successful transfection. Cells were used for electrophysiology recording 18-36 hours after transfection.
(§2) Electrophysiology recordings from HEK293 cells were performed as described previously. Briefly, whole-cell patch-clamp recordings of GABA-evoked currents were made at 30 °C with the holding potential of -60 mV. The internal solution (solution in recording electrodes) contained (in mM): 120 CsCl, 10 EGTA, 10 HEPES, 4 MgCl2, 0.5 GTP, 2 ATP and pH was adjusted to 7.4 with CsOH and the external solution contained (in mM): 150 NaCl, 10 KCl, 2 CaCl2, 1 MgCl, 10 HEPES, 10 Glucose and pH was adjusted to 7.4 with NaOH. ACSF was bubbled continuously with carbogen (95%O2 and 5%CO2). For the recording of GABA-evoked currents, the slides were transferred to a recording chamber, which was perfused with ACSF at a rate of 4 ml/min. The cells were viewed under upright microscopy (Olympus), and GFP-positive cells were selected to record the currents. The interval time between each different dose of GABA was controlled, 3 to 5 minutes to avoid the desensitization of GABAARs.

α2β3γ2 GABAARs = molecular target: T2, α2β3γ2 GABAARs (Homo sapiens, UniProt P18507+P28472+P47869); assay: as above; format: cell-based; conditions: α2β3γ2, n = 8
T2 construct: Shanghai Genechem Co.,Ltd (γ2 plasmid); host or cells: HEK293
Experimental: as §1, §2

α3β3γ2 GABAARs = molecular target: T3, α3β3γ2 GABAARs (Homo sapiens, UniProt P18507+P28472+P34903); assay: as above; format: cell-based; conditions: α3β3γ2, n = 8
T3 construct: Shanghai Genechem Co.,Ltd (γ2 plasmid); host or cells: HEK293
Experimental: as §1, §2

[1] = test system: putative excitatory neurons of brain cortex; assay: Potentiation of GABA-evoked currents in acute brain cortex slices; format: cell-based; conditions: Neuron; rat brain cortex slices, n = 12
PSD-95-nNOS complex = molecular target: T4, PSD-95-nNOS complex (Rattus norvegicus, UniProt P29476); assay: Co-IP of PSD-95-nNOS complex levels in the spinal dorsal horn after SNL; format: in vivo; conditions: SNL rats, (+)-borneol 5 mg/kg/d, i.v., × 3 d
T4 construct: dorsal spinal cord tissues (L4 and L5) were lysed in 400 μl RIPA; from tissue; host or cells: rat dorsal spinal cord (L4 and L5), SNL model

[2] = test system: SNL-induced mechanical hyperalgesia; assay: SNL-induced mechanical hyperalgesia, paw withdrawal threshold; format: in vivo, rat; conditions: SNL rats, (+)-borneol 5 mg/kg/d, i.v., 11 consecutive days
Experimental: Neuropathic pain was induced by segmental spinal nerve ligation (SNL). Animals were anesthetized with isoflurane. After the loss of righting reflex, the animal was fixed in the prone position. The SNL model was prepared as described previously: a median skin incision with about 3-5 cm length in L4-S2 level of the mouse back was made, the muscles next to the vertebrae till the sixth lumbar protruding were separated, the L5/L6 joint protruding on the right side was exposed and excised, and L6 processus transversus was partially split so that the L4-L6 spinal nerves on the right side were exposed. L5 nerve was gently isolated and tightly ligated with 5-0 silk thread. The wound was closed with 4-0 silk thread suture and covered with iodine solution. After nerve ligation, animals with signs of paw clonus or autotomy were excluded from further experiments.
Osmotic minipumps (models 1004 for mouse and 2ML4 for rat; Alzet) and intrathecal cannulas (0.61 mm outer diameter and 0.28 mm inner diameter for mouse, 0.99 mm outer diameter and 0.58 mm inner diameter for rat) were filled with a solution of PBS. Cannulas were inserted into the subarachnoid space through the space between the L5 and L6 vertebrae and the tip of the catheter was implanted at the L5 spinal segmental level.
For rats, the threshold for 50% paw withdrawal (50% PWT) response to mechanical stimulus was assessed through a dynamic plantar apparatus (Ugo Basile, Italy). The 50% PWT refers to that the probability of paw withdrawal response to repeated mechanical stimulus is 50%. Rats were placed individually in a plastic cage (17 × 15 × 15 cm) with a wire mesh bottom which allowed full access to the paws. Behavioral accommodation was allowed for 15-20 min until cage exploration and major grooming activities ceased. A maximal cut-off of 50g/50s was set to prevent tissue damage. To record the PWT in response to mechanical stimulus, each rat was measured five times with a 5-min interval, and the mean value was recorded after excluding maximal and minimum values. The experimental procedures were performed in a double-blind manner.

locomotor activity = assay: Open field test, locomotor activity; format: in vivo; conditions: mice, (+)-borneol 45 mg/kg, i.v.
Experimental: The locomotor activity was assessed by the open field test as described previously. The apparatus consisted of a large area composed of plastic, surrounded by walls that were 100 cm high. The floor was 50 × 50 cm for mice; the overall illumination was 25 lux. Each animal was gently placed in the center of the open field, and its behavior was videotaped. The distance the animals travelled was measured in a 5-min session using ANY-maze (Stoelting Co., IL, USA). After each trial, the plate was cleaned with 70% EtOH. No stressor was applied to the animals for at least 12 h before the test.

α2 subunit of GABAARs = assay: Western blot of GABAAR subunit levels in the spinal dorsal horn; format: in vivo, rat; conditions: SNL rats, (+)-borneol 5 mg/kg/d, i.v., × 11 d
Experimental: (§3) Western bolt analysis was performed as described previously. Briefly, the dorsal spinal cord (L4 and L5) was dissected from sham or SNL rats and homogenized in 400μl RIPA lysis buffer containing 1 μM pepstatin, 10 μg/ml aprotinin, 10 μg/ml leupeptin, 10 μg/ml and 10 μM phenylmethylsufonyl fluoride (PMSF). After lysis for 30 min in ice, samples were centrifuged at 12,000 g for 15 min. The protein content in each supernatant fraction was determined by using Bradford's solution, and samples containing equivalent amounts of protein were applied to 10% or 15% (10% for GABA(A)α2 and α3, 15% for BDNF) acrylamide denaturing gels (SDS-PAGE). The separated proteins were transferred onto a polyvinylidene fluoride membrane. The primary antibodies were as follows: rabbit anti-GABA(A)α2 (1:500; Millipore AB5948), rabbit anti-GABA(A)α3 (1:500; Millipore AB5594), rabbit anti-BDNF (1:1000; Thermo PA1-18357, RRID:AB_1070634). Internal control was performed using rabbit anti-β-actin (1:1000; Bioss bs-0061R, RRID: AB_10855480). Appropriate horseradish peroxidase-linked secondary antibodies were used for detection by enhanced chemiluminescence (Bio-Rad).

α3 subunit of GABAARs = assay: as above; format: in vivo, rat; conditions: SNL rats, (+)-borneol 5 mg/kg/d, i.v., × 11 d
Experimental: as §3

BDNF = assay: Western blot of BDNF levels in the spinal dorsal horn after SNL; format: in vivo, rat; conditions: SNL rats, (+)-borneol 10 mg/kg, i.v., × 3 d
Experimental: as §3

α1-containing GABAAR = test system: α1-containing GABAAR; parameters: method as in PMID 15763546; conditions: Xenopus laevis oocytes, high dose; cited from earlier work

T1 sequence (P14867 28-456): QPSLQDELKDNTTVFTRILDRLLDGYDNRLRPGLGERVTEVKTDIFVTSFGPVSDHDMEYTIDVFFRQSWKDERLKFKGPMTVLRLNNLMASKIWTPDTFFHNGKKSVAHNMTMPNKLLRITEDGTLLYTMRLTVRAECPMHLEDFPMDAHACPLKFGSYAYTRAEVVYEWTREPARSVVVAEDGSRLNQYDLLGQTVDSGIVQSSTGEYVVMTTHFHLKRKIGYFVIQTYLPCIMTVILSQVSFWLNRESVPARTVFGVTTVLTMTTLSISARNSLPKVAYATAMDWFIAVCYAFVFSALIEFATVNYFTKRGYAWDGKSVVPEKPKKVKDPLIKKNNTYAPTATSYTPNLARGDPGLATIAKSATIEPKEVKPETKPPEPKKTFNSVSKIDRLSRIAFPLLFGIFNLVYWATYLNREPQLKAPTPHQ
T1 sequence (P47870 25-512 limits assumed): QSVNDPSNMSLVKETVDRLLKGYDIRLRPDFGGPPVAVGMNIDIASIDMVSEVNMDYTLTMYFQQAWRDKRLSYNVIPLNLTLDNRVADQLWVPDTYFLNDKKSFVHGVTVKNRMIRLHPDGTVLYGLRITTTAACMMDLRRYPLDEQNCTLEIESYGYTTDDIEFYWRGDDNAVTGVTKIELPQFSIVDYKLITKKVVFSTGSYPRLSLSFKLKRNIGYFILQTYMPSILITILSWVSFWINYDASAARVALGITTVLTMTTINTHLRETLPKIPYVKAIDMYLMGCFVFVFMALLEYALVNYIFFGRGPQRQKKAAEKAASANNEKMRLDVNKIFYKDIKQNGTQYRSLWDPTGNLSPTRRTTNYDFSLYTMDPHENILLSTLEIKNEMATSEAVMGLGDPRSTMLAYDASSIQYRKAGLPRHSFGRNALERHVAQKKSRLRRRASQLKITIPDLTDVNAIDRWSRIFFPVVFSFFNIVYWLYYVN
T1 sequence (P18507 40-475): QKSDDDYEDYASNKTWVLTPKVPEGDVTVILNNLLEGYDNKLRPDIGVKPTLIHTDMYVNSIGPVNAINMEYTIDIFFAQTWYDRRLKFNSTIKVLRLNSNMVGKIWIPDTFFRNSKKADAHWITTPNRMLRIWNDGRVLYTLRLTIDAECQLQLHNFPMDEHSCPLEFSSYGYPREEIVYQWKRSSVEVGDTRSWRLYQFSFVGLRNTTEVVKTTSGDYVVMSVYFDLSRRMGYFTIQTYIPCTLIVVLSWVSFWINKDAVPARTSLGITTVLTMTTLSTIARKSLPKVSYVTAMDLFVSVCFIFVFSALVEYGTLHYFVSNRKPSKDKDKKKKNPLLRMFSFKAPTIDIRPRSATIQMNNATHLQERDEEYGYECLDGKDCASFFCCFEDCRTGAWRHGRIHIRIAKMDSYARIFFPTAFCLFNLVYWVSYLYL
T2 sequence (P47869 29-451): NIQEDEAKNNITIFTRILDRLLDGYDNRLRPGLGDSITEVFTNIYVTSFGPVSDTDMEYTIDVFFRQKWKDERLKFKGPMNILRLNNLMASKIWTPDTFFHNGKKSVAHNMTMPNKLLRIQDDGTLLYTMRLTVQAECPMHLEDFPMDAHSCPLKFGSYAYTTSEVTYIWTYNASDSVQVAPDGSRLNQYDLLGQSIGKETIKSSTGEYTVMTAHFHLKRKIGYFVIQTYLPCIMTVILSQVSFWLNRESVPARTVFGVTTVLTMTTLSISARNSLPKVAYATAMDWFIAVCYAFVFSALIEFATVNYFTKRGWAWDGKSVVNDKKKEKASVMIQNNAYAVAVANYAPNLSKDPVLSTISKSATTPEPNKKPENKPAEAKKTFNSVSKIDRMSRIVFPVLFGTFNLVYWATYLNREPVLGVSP
T2 sequence (P28472 26-473): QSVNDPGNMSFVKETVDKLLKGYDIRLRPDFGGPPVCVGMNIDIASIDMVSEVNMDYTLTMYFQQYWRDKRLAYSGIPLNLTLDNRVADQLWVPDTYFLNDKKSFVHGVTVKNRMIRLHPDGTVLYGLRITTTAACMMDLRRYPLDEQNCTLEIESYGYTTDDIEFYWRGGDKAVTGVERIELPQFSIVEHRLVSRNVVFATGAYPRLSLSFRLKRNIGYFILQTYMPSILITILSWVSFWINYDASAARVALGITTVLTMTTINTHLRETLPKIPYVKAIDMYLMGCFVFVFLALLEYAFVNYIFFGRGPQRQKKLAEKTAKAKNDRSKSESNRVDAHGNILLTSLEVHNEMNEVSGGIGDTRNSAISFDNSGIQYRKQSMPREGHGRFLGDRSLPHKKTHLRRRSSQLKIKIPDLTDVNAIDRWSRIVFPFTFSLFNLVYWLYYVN
T2 sequence (P18507 40-475): as the sequence (P18507 40-475) above
T4 sequence (P29476 whole entry, one chain of several): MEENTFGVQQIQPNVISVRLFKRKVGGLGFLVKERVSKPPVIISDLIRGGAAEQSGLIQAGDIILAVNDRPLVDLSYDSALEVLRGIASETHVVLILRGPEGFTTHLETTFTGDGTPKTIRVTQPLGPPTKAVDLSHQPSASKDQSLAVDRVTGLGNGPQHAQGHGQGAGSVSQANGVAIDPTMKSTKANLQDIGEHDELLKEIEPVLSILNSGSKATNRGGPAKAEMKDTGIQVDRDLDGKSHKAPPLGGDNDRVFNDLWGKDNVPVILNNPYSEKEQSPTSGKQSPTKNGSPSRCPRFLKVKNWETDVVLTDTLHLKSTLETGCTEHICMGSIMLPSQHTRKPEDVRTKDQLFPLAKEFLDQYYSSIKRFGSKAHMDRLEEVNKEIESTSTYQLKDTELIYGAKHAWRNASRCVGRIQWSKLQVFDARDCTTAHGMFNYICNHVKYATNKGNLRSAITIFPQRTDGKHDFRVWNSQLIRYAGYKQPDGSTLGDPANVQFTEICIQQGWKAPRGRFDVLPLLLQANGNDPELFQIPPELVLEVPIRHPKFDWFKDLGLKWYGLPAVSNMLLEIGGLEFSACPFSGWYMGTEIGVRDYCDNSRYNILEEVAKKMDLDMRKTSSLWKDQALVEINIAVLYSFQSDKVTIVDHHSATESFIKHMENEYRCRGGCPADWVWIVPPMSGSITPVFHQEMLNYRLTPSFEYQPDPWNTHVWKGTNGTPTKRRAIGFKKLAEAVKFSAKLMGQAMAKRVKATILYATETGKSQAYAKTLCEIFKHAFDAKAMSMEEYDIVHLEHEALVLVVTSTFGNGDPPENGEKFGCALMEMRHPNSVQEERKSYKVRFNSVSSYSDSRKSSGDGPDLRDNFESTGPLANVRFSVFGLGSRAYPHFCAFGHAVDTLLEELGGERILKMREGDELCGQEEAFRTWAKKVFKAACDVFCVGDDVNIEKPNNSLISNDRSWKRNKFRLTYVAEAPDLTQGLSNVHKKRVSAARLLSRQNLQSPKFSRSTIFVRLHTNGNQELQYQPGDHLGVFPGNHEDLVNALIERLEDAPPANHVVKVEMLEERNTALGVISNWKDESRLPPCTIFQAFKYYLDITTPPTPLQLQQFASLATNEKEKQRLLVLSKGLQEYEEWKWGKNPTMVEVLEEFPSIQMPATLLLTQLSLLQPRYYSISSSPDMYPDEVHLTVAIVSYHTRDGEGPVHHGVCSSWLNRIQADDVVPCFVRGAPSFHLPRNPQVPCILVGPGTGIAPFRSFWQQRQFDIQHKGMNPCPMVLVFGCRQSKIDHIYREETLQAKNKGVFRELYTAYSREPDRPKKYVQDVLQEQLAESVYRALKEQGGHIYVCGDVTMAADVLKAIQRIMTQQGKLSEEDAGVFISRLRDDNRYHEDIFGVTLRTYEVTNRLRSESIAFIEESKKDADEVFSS
T3 sequence (P34903 29-492): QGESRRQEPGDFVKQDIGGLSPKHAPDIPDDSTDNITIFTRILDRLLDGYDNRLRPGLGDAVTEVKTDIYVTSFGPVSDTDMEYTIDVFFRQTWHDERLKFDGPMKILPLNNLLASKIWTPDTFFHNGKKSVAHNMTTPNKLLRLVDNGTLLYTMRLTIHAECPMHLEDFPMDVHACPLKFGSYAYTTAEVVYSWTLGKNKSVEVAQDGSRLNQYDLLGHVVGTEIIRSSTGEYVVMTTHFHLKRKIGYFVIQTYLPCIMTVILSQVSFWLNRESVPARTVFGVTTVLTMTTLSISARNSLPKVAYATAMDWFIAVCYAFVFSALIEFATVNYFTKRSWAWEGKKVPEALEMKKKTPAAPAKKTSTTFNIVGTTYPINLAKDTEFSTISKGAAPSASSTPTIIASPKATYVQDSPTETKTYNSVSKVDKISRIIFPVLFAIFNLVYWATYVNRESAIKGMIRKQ
T3 sequence (P28472 26-473): as the sequence (P28472 26-473) above
T3 sequence (P18507 40-475): as the sequence (P18507 40-475) above

CC1(C)[C@@H]2CC[C@@]1(C)[C@@H](O)C2 [(+)-borneol]
Effect on GABA-evoked currents of α1-containing GABAAR (in words) (α1β2γ2 GABAARs): no effect on GABA-evoked currents as high as 10 μM
Emax (α2β3γ2 GABAARs): 122 ± 11%
Emax (α3β3γ2 GABAARs): 109 ± 6.05%
EC50 [1]: 0.4236 ± 0.0014 nM
Emax [1]: 63.1 ± 3.4%
PSD-95-nNOS complex level in the SDH (PSD-95-nNOS complex): increased nNOS-PSD-95 interaction in the SDH significantly
Analgesic tolerance, mechanical hyperalgesia [2]: caused analgesic tolerance development rapidly
Locomotor activity, distance travelled during 5 min (locomotor activity): without BZDs-associated behavioral effects
α2 subunit of GABAARs expression in the SDH (α2 subunit of GABAARs): decreased α2 and α3 subunits of GABAARs expressions
α3 subunit of GABAARs expression in the SDH (α3 subunit of GABAARs): decreased α2 and α3 subunits of GABAARs expressions
SNL-induced BDNF expression in the SDH (BDNF): significantly decreased SNL-induced BDNF expression in the SDH
Modulation of α1-containing GABAAR (α1-containing GABAAR): can positively modulate α1-containing GABAAR expressed in Xenopus laevis oocytes at high dose
